From patent US4556660A, “N-(Bicyclic heterocyclyl)-4-piperidinamines” (Janssen Pharmaceutica N.V., priority 1983, dated 1985) come the findings set out here.

Experiment [1] deals with compound 48/80-induced lethality. In words: Protection of rats from compound 48/80-induced lethality. The class given is in vivo, Male rats of an inbred Wistar strain. Conditions: Rattus norvegicus, 4 h, read-out: compound 48/80 lethality test rats-ED50. The protocol:
Protection of rats from compound 48/80-induced lethality
The protection from compound 48/80-induced lethal circulatory collapse appears to be a simple way of evaluating quantitatively the antihistaminic activity of test compounds. Male rats of an inbred Wistar strain, weighing 240-260 g were used in the experiment. After overnight starvation the rats were transferred to conditioned laboratories (temp.=21±1° C., relative humidity-65±5%).
The rats were treated subcutaneously or orally with a test compound or with the solvent (NaCl solution, 0.9%). […] Survival after 4 hours is therefore considered to be a safe criterion of a protective effect of drug administration.
The ED50 -values of the compounds of formula (I) and the intermediates of formula (XVIII) are listed in the first column of table 1 and table 2. Said ED50 -values are the values in mg/kg body weight at which the tested compounds protect 50% of the tested animals against compound 48/80-induced lethality.

The test system of experiment [2] is serotonin; compound 48/80-induced gastric lesions. In words: Antagonistic activity on the effects of serotonin in the gastric lesion test (lesions induced by compound 48/80). The class given is in vivo, Male rats of a Wistar inbred strain. The protocol: Antagonistic activity on the effects of serotonin in the gastric lesion test
Male rats of a Wistar inbred strain, weighing 220-250 g, were starved overnight, water being available ad libitum. The test compounds were administered orally as a solution or as a suspension in aqueous medium. A control rat and a "blank" rat received the test compound. One hour later 5-[4-(diphenylmethyl)-1-piperazinylmethyl]-1-methyl-1H-benzimidazole-2-methanol was administered subcutaneously to all rats at the dose of 2.5 mg/kg.
Four hours after the intravenous injection of compound 48/80, the rats were decapitated and the stomachs were removed. Subsequently the stomachs were inspected for distension and contents (blood, fluid, food) and thoroughly rinsed. The macroscopic lesions were scored from 0 to +++, 0 corresponding to complete absence of visible lesions and the highest score corresponding to reddish rough patches covering more than half the glandular area.

The mark [3] stands for this setting: Rattus norvegicus, po, read-out: gastric lesion test ED50.
[4] abbreviates: Rattus norvegicus, po; read-out: gastric lesion test ED50.

Each structure is given as a SMILES string. Like-named read-outs stand apart in the source and are kept apart here.

Take `NC(=O)c1cccnc1NCCN1CCC(Nc2nc3cccnc3n2Cc2ccc(F)cc2)CC1` [Compound 24, 2-[[2-[4-[[3-[(4-fluorophenyl)methyl]-3H-imidazo[4,5-b]pyridin-2-yl]amino]-1-piperidinyl]ethyl]amino]-3-pyridinecarboxamide]: the ED50 in experiment [1] and in experiment [2] (setting [3]) was 0.04 mg/kg in each case.
With `Fc1ccc(Cn2c(NC3CCN(CCNc4ncccn4)CC3)nc3ncccc32)cc1` [Compound 25, 1-[(4-fluorophenyl)methyl]-N-[1-[2-[(2-pyrimidinyl)amino]ethyl]-4-piperidinyl]-1H-imidazo[4,5-b]pyridin-2-amine], the ED50 stood at 0.02 mg/kg in experiment [1] and 0.16 mg/kg in experiment [2] (setting [4]).
For `c1ccc(Cn2c(NC3CCN(CCNc4ncccn4)CC3)nc3cccnc32)nc1` [Compound 27, 3-(2-pyridinylmethyl)-N-[1-[2-(2-pyrimidinylamino)ethyl]-4-piperidinyl]3H-imidazo[4,5-b]pyridin-2-amine (E)-2-butenedioate (2:3)], in that order: 0.04 mg/kg and 2.5 mg/kg.
The corresponding values for `c1cnc(NCCN2CCC(Nc3nc4cccnc4n3Cc3ccco3)CC2)nc1` [Compound 28, 3-(2-furanylmethyl)-N-[1-[2-(2-pyrimidinylamino)ethyl]-4-piperidinyl]-3H-imidazo[4,5-b]pyridin-2-amine] are 0.04 mg/kg and 0.63 mg/kg.
For `Cl.Cl.Cl.Fc1ccc(Cn2c(NC3CCN(CCCNc4ccc(Cl)cn4)CC3)nc3ccccc32)cc1.O` [Compound 30, N-[1-[3-[(5-chloro-2-pyridinyl)amino]propyl]-4-piperidinyl]-1-[(4-fluorophenyl)methyl]-1H-benzimidazol-2-amine trihydrochloride monohydrate], the ED50 in experiment [1] is 0.63 mg/kg; in experiment [2] (setting [4]) it was 2.5 mg/kg.
For `Nc1c(Cl)ncnc1NCCN1CCC(Nc2nc3ccccc3n2Cc2ccc(F)cc2)CC1` [Compound 31, 6-chloro-N^4-[2-[4-[[1-[(4-fluorophenyl)methyl]-1H-benzimidazol-2-yl]amino]-1-piperidinyl]ethyl]-4,5-pyrimidinediamine], in that order: 0.16 mg/kg and 1.25 mg/kg.
Regarding `Fc1ccc(Cn2c(NC3CCN(CCNc4cnccn4)CC3)nc3ccccc32)cc1` [Compound 33], the ED50 was determined as 0.16 mg/kg in experiment [1] and 2.5 mg/kg in experiment [2] (setting [4]).
The corresponding values for `Nc1cc(NCCN2CCC(Nc3nc4ccccc4n3Cc3ccc(F)cc3)CC2)nc(N)n1` [Compound 34] are 0.08 mg/kg and 0.16 mg/kg.
The corresponding values for `NC(=O)c1cccnc1NCCN1CCC(Nc2nc3ccccc3n2Cc2ccc(F)cc2)CC1` [Compound 36] are 0.08 mg/kg and 0.16 mg/kg.
For `Fc1ccc(Cn2c(NC3CCN(CCNc4ccc(Cl)nn4)CC3)nc3ccccc32)cc1` [Compound 37], in that order: 0.08 mg/kg and 1.25 mg/kg.
`Fc1ccc(Cn2c(NC3CCN(CCNc4ccc(Br)cn4)CC3)nc3ccccc32)cc1` [Compound 39]: the figures for the ED50 in experiment [1] and in experiment [2] (setting [4]) were 0.31 mg/kg and 2.5 mg/kg, respectively.
`Fc1ccc(Cn2c(NC3CCN(CCNc4ncccc4Cl)CC3)nc3ccccc32)cc1` [Compound 40]: the values for the ED50 in experiment [1] and in experiment [2] (setting [4]) were 0.16 mg/kg and 0.31 mg/kg, respectively.
For `NC(=O)c1ccc(NCCN2CCC(Nc3nc4ccccc4n3Cc3ccc(F)cc3)CC2)nc1` [Compound 42], the ED50 is 0.04 mg/kg in experiment [1] and 0.08 mg/kg in experiment [2] (setting [3]).
For `c1cnc(NCCN2CCC(Nc3nc4ccccc4n3Cc3ccco3)CC2)nc1` [Compound 43], in that order: 0.16 mg/kg and 0.04 mg/kg.
Take `NC(=O)c1cccnc1NCCN1CCC(Nc2nc3ccccc3n2Cc2ccco2)CC1` [Compound 46]: the ED50 in experiment [1] amounted to 0.04 mg/kg; in experiment [2] (setting [4]), 0.63 mg/kg.
The corresponding values for `Fc1ccc(Cn2c(NC3CCN(CCNc4ncccc4Cl)CC3)nc3cccnc32)cc1` [Compound 47] are 0.08 mg/kg and 0.31 mg/kg.
The corresponding values for `Brc1ccc(NCCN2CCC(Nc3nc4ccccc4n3Cc3ccccc3)CC2)nc1` [Compound 49] are 0.31 mg/kg and 2.5 mg/kg.
Consider `Cc1ccc(Cn2c(NC3CCN(CCNc4ccc(Br)cn4)CC3)nc3ccccc32)cc1` [Compound 51], for which the figures for the ED50 in experiment [1] and in experiment [2] (setting [3]) were 0.02 mg/kg and 0.08 mg/kg, respectively.
In the case of `CN(CCN1CCC(Nc2nc3ccccc3n2Cc2ccc(F)cc2)CC1)c1ccc(Cl)cn1` [Compound 56], the ED50 in experiment [1] is 0.31 mg/kg; in experiment [2] (setting [4]) it was 1.25 mg/kg.
The corresponding values for `Cl.Cl.Fc1ccc(Cn2c(NC3CCN(CCNc4ccnc(Cl)n4)CC3)nc3ccccc32)cc1.O` [Compound 60, N-[1-[2-[(2-chloro-4-pyrimidinyl)amino]ethyl]-4-piperidinyl]-1-[(4-fluorophenyl)methyl]1H-benzimidazol-2-amine dihydrochloride monohydrate] are 0.31 mg/kg and 2.5 mg/kg.
For `Cc1cc(NCCN2CCC(Nc3nc4ccccc4n3Cc3ccc(F)cc3)CC2)nc(Cl)n1` [Compound 61, N-[1-[2-[(2-chloro-6-methyl-4-pyrimidinyl)amino]ethyl]-4-piperidinyl]-1-[(4-fluorophenyl)methyl]-1H-benzimidazol-2-amine], in that order: 0.08 mg/kg and 2.5 mg/kg.
Take `Nc1nc(NCCN2CCC(Nc3nc4ccccc4n3Cc3ccc(F)cc3)CC2)ccc1[N+](=O)[O-]` [Compound 63, N^6-[2-[4-[[1-[(4-fluorophenyl)methyl]1H-benzimidazol-2-yl]amino]-1-piperidinyl]ethyl]-3-nitro-2,6-pyridinediamine]: the ED50 in experiment [1] was 0.31 mg/kg; in experiment [2] (setting [4]) it was 2.5 mg/kg.
For `c1ccc(Cn2c(NC3CCN(CCNc4ncccn4)CC3)nc3ccccc32)cc1` [Compound 65, 1-(phenylmethyl)-N-[1-[2-[(2-pyrimidinyl)amino]ethyl]-4-piperidinyl]-1H-benzimidazol-2-amine], in that order: 0.08 mg/kg and 0.31 mg/kg.
In the case of `Cc1ccc(Cn2c(NC3CCN(CCNc4ncccn4)CC3)nc3ccccc32)cc1` [Compound 67, 1-[(4-methylphenyl)methyl]-N-[1-[2-[(2-pyrimidinyl)amino]ethyl]-4-piperidinyl]-1H-benzimidazol-2-amine], the ED50 is 0.16 mg/kg in experiment [1] and 0.63 mg/kg in experiment [2] (setting [3]).
On to `Clc1ccc(Cn2c(NC3CCN(CCNc4ncccn4)CC3)nc3ccccc32)cc1` [Compound 68, 1-[(4-chlorophenyl)methyl]-N-[1-[2-(2-pyrimidinylamino)ethyl]-4-piperidinyl]-1H-benzimidazol-2-amine], for which the figures for the ED50 in experiment [1] and in experiment [2] (setting [4]) were 0.16 mg/kg and 2.5 mg/kg, respectively.
The corresponding values for `COc1ccc(Cn2c(NC3CCN(CCNc4ncccn4)CC3)nc3ccccc32)cc1` [Compound 69, 1-[(4-methoxyphenyl)methyl]-N-[1-[2-(2-pyrimidinylamino)ethyl]-4-piperidinyl]-1H-benzimidazol-2-amine] are 0.31 mg/kg and 2.5 mg/kg.
`O=C(O)/C=C/C(=O)O.O=C(O)/C=C/C(=O)O.c1cnc(NCCN2CCC(Nc3nc4ccccc4n3Cc3cscn3)CC2)nc1` [Compound 72, N-[1-[2-(2-pyrimidinylamino)ethyl]-4-piperidinyl]-1-(4-thiazolylmethyl)-1H-benzimidazol-2-amine (E)-2-butenedioate (1:2)]: the ED50 in experiment [1] was found to be 0.02 mg/kg; in experiment [2] (setting [3]), 0.08 mg/kg.
For the molecule `Oc1ccc(Cn2c(NC3CCN(CCNc4ncccn4)CC3)nc3ccccc32)cc1` [Compound 73, 4-[[2-[[1-[2-(2-pyrimidinylamino)ethyl]-4-piperidinyl]amino]-1H-benzimidazol-1-yl]methyl]phenol], the ED50 in experiment [1] and in experiment [2] (setting [4]) was 2.5 mg/kg each time.
For the molecule `CN(c1nc2ccccc2n1Cc1ccc(F)cc1)C1CCN(CCNc2ncccn2)CC1` [Compound 75], the results for the ED50 in experiment [1] and in experiment [2] (setting [3]) were 0.08 mg/kg and 0.63 mg/kg, respectively.
As to `Fc1ccc(Cn2c(NC3CCN(CCOc4ccc5ccccc5n4)CC3)nc3ccccc32)cc1` [Compound 77, 1-[(4-fluorophenyl)methyl]-N-[1-[2-(2-quinolinyloxy)ethyl]-4-piperidinyl]-1H-benzimidazol-2-amine], the ED50 in experiment [1] is 1.25 mg/kg; in experiment [2] (setting [4]), 2.5 mg/kg.
The corresponding values for `CSc1nccc(OCCN2CCC(Nc3nc4ccccc4n3Cc3ccc(F)cc3)CC2)n1` [Compound 79, 1-[(4-fluorophenyl)methyl]-N-[1-[2-[[2-(methylthio)-4-pyrimidinyl]oxy]ethyl]-4-piperidinyl]-1H-benzimidazol-2-amine] are 0.16 mg/kg and 2.5 mg/kg.
For `Fc1ccc(Cn2c(NC3CCN(CCOc4ncccn4)CC3)nc3ccccc32)cc1` [Compound 81, 1-[(4-fluorophenyl)methyl]-N-[1-[2-(2-pyrimidinyloxy)ethyl]-4-piperidinyl]-1H-benzimidazol-2-amine], in that order: 0.16 mg/kg and 0.63 mg/kg.
